The record followed here is a melting point compilation (Tetko et al.; mined from patent text by program, amines drawn as free bases though some values may be those of a salt).

In general, melting point refers to the temperature, or range, at which the solid turns liquid.

Where only a bound is given, the exact number is not on record here.

In turn, `O=[N+]([O-])c1ccc(OCCCCCOc2ccc([N+](=O)[O-])cc2)cc1` showed a melting point of 101 to 102 °C. As for `CCCCCCCCCCCCCCCCS(N)(=O)=O`, the melting point lay within 98 to 100 °C. Take `COc1ccc(Nc2cc(N3CCCC3)nc(N3CCCC3)n2)cc1`: the melting point was in the range of 162 to 163 °C. As to `CCc1nc2c(nc1O)CCCC2`, the melting point was in the range of 152 to 153 °C. `COc1cc(Br)c(-n2c(=O)[nH]c3c(-c4ccccc4C(F)(F)F)nc(C)nc32)c(OC)c1` registered a melting point of 255 to 256 °C.

As for `Cc1cc(S(=O)(=O)N2CC(C)CC(C)C2)ccc1[N+](=O)[O-]` (stereo unspecified), the melting point was in the range of 133 to 138 °C. The compound `CC(C)c1ccc(N(Cc2ccc(N(C)C)cc2)C(=O)C2CCCc3cc(O)ccc32)cc1` (stereo unspecified) returned a melting point of 169 to 171 °C. `CCC(CC)Nc1cc(C)nc(Oc2c(C)cc(Cl)cc2C)c1[N+](=O)[O-]` registered a melting point of 152 to 154 °C. As for `NCc1ccn(C2=CC3=C(CC2)CCc2[nH]c(=O)c(=O)n(O)c23)c1`, the melting point was above 250 °C. Regarding `OCC1Cc2c(c(Cl)cc3c(-c4ccccc4F)noc23)O1` (stereo unspecified), the melting point fell in the range of 136 to 139 °C. Take `O=C(c1ccc(-c2ccccc2)cc1)C1(n2cncn2)CC1`: the melting point is 154 to 155 °C. To `CCOC(=O)C(C)(C)n1c(=O)[nH]c2cc(Cl)ccc2c1=O` belongs 201 to 202 °C; to `CN(N=C(Cl)c1c(Cl)cccc1Cl)S(=O)(=O)c1ccccc1`, 103 to 104 °C; to `COc1cc(C2CCCCC2)ccc1C(O)CCC(=O)O` (stereo unspecified), 105 to 106 °C. For `Nn1ncc2c1-c1cc3ccccc3nc1CC2`, the melting point worked out at 235 °C. To `C=C(C(=O)OC1CC2CCC(C1)N2C(C)=O)c1ccccc1` (stereo unspecified) belongs 104 to 107 °C; to `O=C1C(=O)c2ccccc2C2=C1SCC1(CCN(C(=O)Cc3ccc(Cl)cc3)CC1)O2`, 120 to 125 °C; to `O=S(=O)(c1ccccc1)c1cc(Cl)c2oc3c(c2c1)CC(O)CC3` (stereo unspecified), 236 to 240 °C. Regarding `COc1cc2c(cc1C=O)OCC2`, the melting point was in the range of 82 to 84 °C.

`Cc1cc(C(=O)O)c2c(c1)C(C(Cl)(Cl)Cl)OC(C(Cl)(Cl)Cl)O2` (stereo unspecified) had a melting point of 290 to 291 °C. To `C=C=Cn1[nH]c2ccccc2c1=O` belongs 126 to 130 °C; to `CC1(C)Oc2ccc(C#N)cc2[C@@H](NC=O)[C@@H]1OC=O` (relative stereo), 171 to 172 °C; to `O=C(CSc1ccccc1)Nc1c(Cl)ccc2nc(N3CC[C@@H](O)C3)ccc12`, 246 to 249 °C.

Take `Cc1ccc(C(=O)O)cc1Nc1nccc(-c2cccnc2)n1`: the melting point was 277 to 278 °C. To `CC1(C)Cc2c(c(N3CCCC3)nc3sc4c(NCCCN5CCCC5=O)ncnc4c23)CO1` belongs 217 °C; to `CN1CCC(c2c[nH]c3ccc(C(=O)c4ccccc4)cc23)CC1`, 101 °C; to `COc1cc(OCC(=O)O)c(C)cc1SCc1sc(-c2ccc(C(F)(F)F)cc2)nc1C`, 211 to 213 °C. The compound `Nc1nonc1-c1nc2ccccc2n1COc1ccc(F)cc1` gave a melting point of 155 to 158 °C. Take `COC(=O)C(C)(C)Sc1cccc(OCc2ccc(-c3ccc([N+](=O)[O-])cc3)o2)c1`: the melting point fell in the range of 81 to 82 °C. To `[O-][N+](=Cc1ccc(OCc2ccccc2)cc1)C1CCCCCCC1` belongs 108 °C. `COc1cc(C=O)ccc1OCc1nc(-c2cccc(OS(C)(=O)=O)c2)oc1C` returned a melting point of 136 to 137 °C. On to `CCOC(=O)C(Cc1ccc(OC)cc1)c1cc2cc(Br)ccc2s1` (stereo unspecified), for which the melting point is 62 to 65 °C. `CCOc1cc([N+](=O)[O-])c(N)cc1C(=O)OC` gave a melting point of 156 to 157 °C.

`CCOC(=O)C1=C(COCc2nnn(CCN3CCN(C(=O)NC)CC3)n2)NC(C)=C(C(=O)OC)C1c1cccc(Cl)c1Cl` (stereo unspecified) had a melting point of 112 to 114 °C. Turning to `Cc1cc(-n2ccnc2)c2cccc(OCc3c(Cl)ccc(S(=O)(=O)N4CCC[C@H]4C(=O)NCCc4ccccn4)c3Cl)c2n1`, the melting point was 82 °C. For `CC[C@@](O)(CC(=O)N1C(=O)O[C@@H](c2ccccc2)[C@H]1c1ccccc1)c1ccnc(OC)c1COCc1ccccc1`, the melting point amounted to 61 °C.

`CSc1ccc2c(O)c(CS(C)(=O)=O)cnc2c1` showed a melting point of 290 to 292 °C.

In the case of `CCCC(CCC)C(=O)O[C@H]1C[C@H](O)C=C2C=C[C@H](C)[C@H](CC[C@@H]3C[C@@H](O)CC(=O)O3)[C@H]21`, the melting point lay in the range of 165 to 166 °C.

`CS(=O)c1ccc(C2=CC(=O)C(C)(C)O2)cc1` (stereo unspecified) gave a melting point of 108 to 109 °C. `c1ccc2cc(-c3nc(COc4ccc(CCCn5ccnc5)cc4)co3)ccc2c1` registered a melting point of 131 to 132 °C. The compound `CCCCCCC(C(=O)O)n1cnc([N+](=O)[O-])c1` (stereo unspecified) showed a melting point of 112 to 114 °C. `CN1CCC(Oc2ccc(NC(=O)n3ccc4cc(Oc5cc(CC(N)=O)ncn5)ccc43)cc2C(F)(F)F)CC1` displayed a melting point of 200 to 201 °C. In the case of `COC(=O)c1cc(CO)ccc1S(=O)(=O)NC(=O)Nc1nc(OC)cc(OC)n1`, the melting point was 182 to 185 °C. For `COCCNC(=O)c1ccc(C)c(-n2c(C)cc(OCc3ccccc3CNC(=O)Nc3cc(C(C)(C)C)nn3-c3ccc(Cl)c(O)c3)c(Cl)c2=O)c1`, the melting point lay in the range of 182 to 183 °C.

Consider `Cc1cc2c(c3c1NC(=O)C(C)(C)C3)OC(C)(CN=[N+]=[N-])C2` (stereo unspecified), for which the melting point fell in the range of 169 to 170 °C. `Cn1nc(-c2c(Cl)cncc2Cl)nc1Cc1ccc(Cl)cc1Cl` had a melting point of 79 to 81 °C. As for `CC1CC(=O)NN=C1c1ccc(N2CCC(CN3C(=O)c4ccccc4C3=O)CC2)c([N+](=O)[O-])c1` (stereo unspecified), the melting point lay in the range of 256 to 258 °C. To `CCC(C)(C)c1ccc(S(=O)(=O)Nc2ncnc(OCCOc3ccc(Br)cn3)c2-c2ccc(C)cc2)cc1` belongs 154 °C; to `Cc1ccn(-c2ccc(C(=O)O)c(Cl)c2)n1`, 192 to 193 °C. Regarding `Cc1ccc2cc(C=O)ccc2c1`, the melting point fell in the range of 110 to 111 °C. To `NC(=O)c1ccc(Cl)c(Br)c1` belongs 146 to 147 °C; to `CCCCc1nc(Cl)c(CC(=O)O)c(Cc2ccc(-c3ccccc3C(=O)O)cc2)n1`, 100 to 110 °C; to `C=CCOc1cc(N2C(=O)c3ccccc3C2=O)c(F)cc1Cl`, 148 to 150 °C.

On to `N#Cc1ccc(CC23CCCN2C(=O)N(c2cc(Cl)c(N)c(Cl)c2)C3=O)cc1` (stereo unspecified), for which the melting point turned out to be 103 °C. In turn, `CC(C)(C)OC(=O)N1CCC(C(=O)c2ccccc2)CC1` returned a melting point of 91 to 93 °C. As for `CC1=Nc2c3cc(C(=O)O)nc-3ccn2C1`, the melting point fell in the range of 325 to 327 °C. `CC1(C)CS(=O)(=O)CC(C)(C)N1Cl` came in with a melting point of 163 °C. For `COC(=O)c1ccc2c(c1)CCC(CCN1CCC(c3ccccc3)CC1)C2=O` (stereo unspecified), the melting point was 110 to 112 °C. `O=P(O)(O)CCCCCCC(F)(F)C(F)(F)C(F)(F)C(F)(F)F` yielded a melting point of 107 to 108 °C. In turn, `Cc1ccc([N+](=O)[O-])c(C(N)=O)c1` displayed a melting point of 172 to 175 °C. Compound `CCc1cn(C2CC(O)C(CCCCc3ccccc3)O2)c(=O)[nH]c1=O` (stereo unspecified) had a melting point of 160 to 162 °C.

In turn, `OC/C=C(\c1ccccc1)c1ccc(C#Cc2ccccc2)cc1` came in with a melting point of 115 to 117 °C. Consider `CCCCCCCCCCCCCCCCCCCc1cccc(N)c1`, for which the melting point was in the range of 50 to 51 °C. To `CCc1cccc(N=C(C)Nc2cccc(CC)c2)c1` belongs 86 to 87 °C; to `O=[N+]([O-])c1cnc(Sc2n[nH]c(-c3cccs3)n2)s1`, 179 to 181 °C; to `CCC[C@H](NC(=O)OCc1ccccc1)C(=O)C(N)P(=O)(OC)OC` (stereo partly specified), 82 to 84 °C.

Compound `O=C(O)C1=Cc2cc(Cl)cc(COCc3ccccc3)c2OC1C(F)(F)F` (stereo unspecified) showed a melting point of 134 to 135 °C. To `Cc1ccc(S(=O)(=O)Oc2ccc(S(=O)(=O)C3=Cc4ccccc4C3)cc2)cc1` belongs 174 °C; to `Nc1ccc(-c2ncc(NC(=O)OCc3ccccc3)c(=O)n2CC(=O)NC(Cc2ccccc2)C(=O)C(F)(F)F)cc1` (stereo unspecified), 98 to 101 °C; to `CC(Br)C(=O)Nc1ccc(Cl)cc1NC1CC1` (racemic), 130 °C. Compound `CC(C(=O)O)c1ccc2c(-c3ccc(Cl)cc3)noc2c1` (stereo unspecified) registered a melting point of 176 to 179 °C. To `Cc1c(NC(=O)c2ccc(OC[C@@H]3CCCO3)cc2F)ccc2cc(CNCC(C)(C)O)n(C)c12` belongs 132 to 133 °C; to `N#CC(=C(C#N)c1ccc(F)cc1)c1ccc(F)cc1`, 194 to 195 °C; to `CSCCCCCn1c(C)nc2c(N)nc(C)c(C)c21`, 121 to 122 °C.

Compound `CSc1cccc2nc3sccn3c(=O)c12` returned a melting point of 186 to 189 °C. The compound `Cc1cc(-c2nc(C)c(C)o2)cc(C)c1O` had a melting point of 203 to 205 °C. Compound `Nc1nc(NCCOc2ccc(O)cc2)nc2nc(-c3ccco3)nn12` had a melting point of 266 to 268 °C.

For the compound `Cc1ccc(C(=O)Nc2ccc(N3CCCCC3)c(C(F)(F)F)c2)cc1Nc1nccc(-c2cccnc2)n1`, the melting point was in the range of 201 to 202 °C. Compound `O=C1CCC(c2ccc(Cl)c(C(F)(F)F)c2)=NN1` returned a melting point of 195 to 198 °C. For `COc1ccc2cc(-c3cccc(C=O)c3)cc(CCNC(C)=O)c2c1`, the melting point fell in the range of 123 to 125 °C.

`O=[N+]([O-])c1cc(Cl)c(CCl)c(Cl)c1` had a melting point of 37 to 39 °C.

Consider `CC(=O)Oc1cc(C)cc(C(=O)N[C@@H](Cc2ccccc2)[C@H](OC(C)=O)C(=O)O)c1C`, for which the melting point is 185 to 186 °C. To `CCOP(=O)(CCN1CCC(N(CCN)S(=O)(=O)c2ccc(Nc3nccc(Nc4ccc(F)cc4)n3)cc2)CC1)OCC` belongs 90 °C; to `Fc1ccc([C@H]2CC[C@H](N3CCN(Cc4ccccc4)CC3)CC2)cc1`, 106 °C. As to `O=C(Oc1cccc2sc(-c3ccc(OCCN4CCCC4)cc3)c(C(=O)c3ccc(F)cc3)c12)c1ccc(F)cc1`, the melting point is 58 to 63 °C. To `CNC(=O)c1ccccc1Nc1nc(Nc2ccc3c(c2)CCC(NCC(F)F)CC3)ncc1Cl` (stereo unspecified) belongs 182 to 183 °C.
